These results are taken from ChEMBL document CHEMBL4017469, “First insight into structure-activity relationships of selective meprin β inhibitors” (Bioorg Med Chem Lett, 2017).

Data set [1] concerns the target T1, Meprin A subunit beta (Homo sapiens, UniProt Q16820).
T1 sequence (Q16820 whole entry): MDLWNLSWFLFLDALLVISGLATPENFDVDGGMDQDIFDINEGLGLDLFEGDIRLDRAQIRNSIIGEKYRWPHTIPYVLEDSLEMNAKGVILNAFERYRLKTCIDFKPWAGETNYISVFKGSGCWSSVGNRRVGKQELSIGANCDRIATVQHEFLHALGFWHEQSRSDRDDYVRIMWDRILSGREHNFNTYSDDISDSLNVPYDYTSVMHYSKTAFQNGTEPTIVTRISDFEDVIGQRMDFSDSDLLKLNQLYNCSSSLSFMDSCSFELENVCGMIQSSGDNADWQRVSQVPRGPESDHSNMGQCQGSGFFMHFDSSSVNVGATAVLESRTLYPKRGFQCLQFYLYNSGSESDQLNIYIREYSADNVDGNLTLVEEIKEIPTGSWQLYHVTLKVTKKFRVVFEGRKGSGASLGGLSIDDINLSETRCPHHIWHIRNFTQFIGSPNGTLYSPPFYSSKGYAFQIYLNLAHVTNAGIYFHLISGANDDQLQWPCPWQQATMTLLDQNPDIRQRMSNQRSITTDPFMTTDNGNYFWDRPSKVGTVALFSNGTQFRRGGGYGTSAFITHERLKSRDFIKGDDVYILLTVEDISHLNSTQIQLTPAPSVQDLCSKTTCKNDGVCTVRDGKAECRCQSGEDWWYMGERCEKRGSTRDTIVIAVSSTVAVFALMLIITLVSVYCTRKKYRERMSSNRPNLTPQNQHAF
Briefly: Inhibition of recombinant human meprin beta expressed in yeast using Abz-YVAEAPK(Dnp)G-OH as substrate by fluorescence assay.

Data set [2] deals with T2, 72 kDa type IV collagenase (Homo sapiens, UniProt P08253). The data set is described as follows: Inhibition of APMA-activated recombinant human MMP2 expressed in CHO cells using Mca-PLGL-(DapDnp)-AR-NH2 as substrate by fluorescence assay.
The next data set concerns the target T3, Meprin A subunit alpha (Homo sapiens, UniProt Q16819).
T3 sequence (Q16819 whole entry): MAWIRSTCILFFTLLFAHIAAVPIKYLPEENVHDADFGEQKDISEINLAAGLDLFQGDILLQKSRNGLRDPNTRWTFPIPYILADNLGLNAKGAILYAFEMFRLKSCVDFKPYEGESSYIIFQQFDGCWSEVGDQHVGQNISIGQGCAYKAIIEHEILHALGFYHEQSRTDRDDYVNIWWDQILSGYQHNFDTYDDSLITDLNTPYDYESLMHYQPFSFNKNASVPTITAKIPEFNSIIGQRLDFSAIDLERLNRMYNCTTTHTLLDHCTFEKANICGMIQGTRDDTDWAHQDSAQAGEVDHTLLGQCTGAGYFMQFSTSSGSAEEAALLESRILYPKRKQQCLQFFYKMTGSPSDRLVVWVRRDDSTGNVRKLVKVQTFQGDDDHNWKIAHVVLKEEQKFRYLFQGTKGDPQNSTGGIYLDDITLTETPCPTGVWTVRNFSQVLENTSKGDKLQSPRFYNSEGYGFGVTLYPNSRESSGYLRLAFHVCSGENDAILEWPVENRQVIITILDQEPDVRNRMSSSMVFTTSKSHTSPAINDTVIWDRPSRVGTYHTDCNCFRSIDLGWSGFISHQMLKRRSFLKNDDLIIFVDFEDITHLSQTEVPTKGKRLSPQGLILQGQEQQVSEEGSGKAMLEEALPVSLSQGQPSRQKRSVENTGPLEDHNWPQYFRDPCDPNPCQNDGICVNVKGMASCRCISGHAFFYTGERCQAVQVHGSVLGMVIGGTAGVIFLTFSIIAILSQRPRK
Briefly: Inhibition of recombinant human meprin alpha expressed in S2 insect cells using Abz-YVADAPK(Dnp)G-OH as substrate by fluorescence assay.

The target in data set [3] is T4, Matrix metalloproteinase-9 (Homo sapiens, UniProt P14780). The data set is described as follows: Inhibition of APMA-activated recombinant human MMP9 expressed in CHO cells using Mca-PLGL-(DapDnp)-AR-NH2 as substrate by fluorescence assay.
Data set [4] concerns the target T5, Collagenase 3 (Homo sapiens, UniProt P45452). Briefly: Inhibition of APMA-activated recombinant human MMP13 expressed in mouse NS0 cells using Mca-PLGL-(DapDnp)-AR-NH2 as substrate by fluorescence assay.
Data set [5] has as its target T6, Disintegrin and metalloproteinase domain-containing protein 10 (Homo sapiens, UniProt O14672).
T6 sequence (O14672 whole entry): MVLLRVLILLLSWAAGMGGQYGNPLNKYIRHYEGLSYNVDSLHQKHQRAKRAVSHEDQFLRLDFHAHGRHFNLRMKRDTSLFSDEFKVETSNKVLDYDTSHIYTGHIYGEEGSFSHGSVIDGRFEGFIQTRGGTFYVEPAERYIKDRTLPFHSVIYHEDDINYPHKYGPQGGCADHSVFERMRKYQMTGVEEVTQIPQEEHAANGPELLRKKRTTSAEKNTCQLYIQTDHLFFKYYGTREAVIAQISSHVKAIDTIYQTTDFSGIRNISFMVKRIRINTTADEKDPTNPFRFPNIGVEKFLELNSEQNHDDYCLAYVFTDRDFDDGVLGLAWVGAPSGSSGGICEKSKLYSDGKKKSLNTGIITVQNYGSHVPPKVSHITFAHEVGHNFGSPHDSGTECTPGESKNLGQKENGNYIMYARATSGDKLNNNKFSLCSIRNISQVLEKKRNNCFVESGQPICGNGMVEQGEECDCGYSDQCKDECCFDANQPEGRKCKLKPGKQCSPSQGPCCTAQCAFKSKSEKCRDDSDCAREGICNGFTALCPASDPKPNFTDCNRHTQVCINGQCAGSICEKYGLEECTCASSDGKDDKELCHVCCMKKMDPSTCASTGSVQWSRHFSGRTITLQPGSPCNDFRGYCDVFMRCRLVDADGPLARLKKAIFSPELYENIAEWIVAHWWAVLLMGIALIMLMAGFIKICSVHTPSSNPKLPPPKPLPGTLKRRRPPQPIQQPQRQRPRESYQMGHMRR
The data set is described as follows: Inhibition of recombinant human C-terminal His10-tagged ADAM10 expressed in baculovirus infected Sf21 cells using Abz-LANAVRSSSR-(DapDnp)-NH2 as substrate by fluorescence assay.

Data set [6] has as its target T7, Disintegrin and metalloproteinase domain-containing protein 17 (Homo sapiens, UniProt P78536). Briefly: Inhibition of recombinant human C-terminal His6-tagged ADAM17 expressed in baculovirus infected Sf21 cells using Abz-LANAVRSSSR-(DapDnp)-NH2 as substrate by fluorescence assay.
For data set [7], the species on record is Homo sapiens. Briefly: Selectivity ratio of IC50 for recombinant human meprin alpha expressed in S2 insect cells to IC50 for recombinant human meprin beta expressed in yeast.
For data set [8], the species on record is Homo sapiens. The data set is described as follows: Selectivity ratio of IC50 for recombinant human C-terminal His10-tagged ADAM10 expressed in baculovirus infected Sf21 cells to IC50 for recombinant human meprin beta expressed in yeast.
Data set [9] deals with T1, Meprin A subunit beta. The data set is described as follows: Inhibition of recombinant human meprin beta expressed in baculovirus infected Sf9 insect cells using (MCA)-EDEDED-(K-epsilon-dnp) as substrate by fluorescence assay.
For data set [10], the target named is T2, 72 kDa type IV collagenase. Briefly: Inhibition of APMA-activated recombinant human MMP2 expressed in CHO cells at 200 uM using Mca-PLGL-(DapDnp)-AR-NH2 as substrate by fluorescence assay.
The target in data set [11] is T4, Matrix metalloproteinase-9. The data set is described as follows: Inhibition of APMA-activated recombinant human MMP9 expressed in CHO cells at 200 uM using Mca-PLGL-(DapDnp)-AR-NH2 as substrate by fluorescence assay.
Data set [12] addresses T5, Collagenase 3. Briefly: Inhibition of APMA-activated recombinant human MMP13 expressed in mouse NS0 cells at 200 uM using Mca-PLGL-(DapDnp)-AR-NH2 as substrate by fluorescence assay.
Data set [13] has as its target T6, Disintegrin and metalloproteinase domain-containing protein 10. The data set is described as follows: Inhibition of recombinant human C-terminal His10-tagged ADAM10 expressed in baculovirus infected Sf21 cells at 200 uM using Abz-LANAVRSSSR-(DapDnp)-NH2 as substrate by fluorescence assay.
For data set [14], the target named is T7, Disintegrin and metalloproteinase domain-containing protein 17. Briefly: Inhibition of recombinant human C-terminal His6-tagged ADAM17 expressed in baculovirus infected Sf21 cells at 200 uM using Abz-LANAVRSSSR-(DapDnp)-NH2 as substrate by fluorescence assay.
The species named for data set [15] is Homo sapiens. The data set is described as follows: Selectivity ratio of IC50 APMA-activated recombinant human MMP2 expressed in CHO cells to IC50 for recombinant human meprin beta expressed in yeast. The data set is classed as cell-based.
Data set [16] addresses T1, Meprin A subunit beta. The data set is described as follows: Inhibition of human meprin beta expressed in baculovirus infected BTI-TN-5B1-4 insect cells using N-benzoyl-L-tyrosylp-aminobenzoic acid as substrate.

T2 sequence (P08253 whole entry): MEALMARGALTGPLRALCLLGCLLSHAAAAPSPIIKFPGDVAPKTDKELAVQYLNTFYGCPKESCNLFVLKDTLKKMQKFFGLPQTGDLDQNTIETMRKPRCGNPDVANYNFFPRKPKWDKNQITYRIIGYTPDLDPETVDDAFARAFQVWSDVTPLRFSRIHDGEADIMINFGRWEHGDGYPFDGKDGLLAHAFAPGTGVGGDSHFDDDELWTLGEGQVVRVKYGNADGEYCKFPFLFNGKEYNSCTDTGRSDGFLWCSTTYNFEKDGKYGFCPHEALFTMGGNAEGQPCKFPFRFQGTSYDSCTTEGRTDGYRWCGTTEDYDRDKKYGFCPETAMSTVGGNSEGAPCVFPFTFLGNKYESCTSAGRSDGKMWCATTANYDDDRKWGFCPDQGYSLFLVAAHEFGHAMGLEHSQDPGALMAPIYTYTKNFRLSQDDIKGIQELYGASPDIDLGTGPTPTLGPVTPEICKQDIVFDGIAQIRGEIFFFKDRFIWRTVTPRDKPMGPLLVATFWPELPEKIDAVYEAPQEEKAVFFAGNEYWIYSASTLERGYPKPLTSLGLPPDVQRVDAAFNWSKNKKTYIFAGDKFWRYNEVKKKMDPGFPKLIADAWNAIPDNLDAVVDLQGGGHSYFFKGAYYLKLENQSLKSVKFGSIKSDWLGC
T7 sequence (P78536 whole entry, the tested form may be a part): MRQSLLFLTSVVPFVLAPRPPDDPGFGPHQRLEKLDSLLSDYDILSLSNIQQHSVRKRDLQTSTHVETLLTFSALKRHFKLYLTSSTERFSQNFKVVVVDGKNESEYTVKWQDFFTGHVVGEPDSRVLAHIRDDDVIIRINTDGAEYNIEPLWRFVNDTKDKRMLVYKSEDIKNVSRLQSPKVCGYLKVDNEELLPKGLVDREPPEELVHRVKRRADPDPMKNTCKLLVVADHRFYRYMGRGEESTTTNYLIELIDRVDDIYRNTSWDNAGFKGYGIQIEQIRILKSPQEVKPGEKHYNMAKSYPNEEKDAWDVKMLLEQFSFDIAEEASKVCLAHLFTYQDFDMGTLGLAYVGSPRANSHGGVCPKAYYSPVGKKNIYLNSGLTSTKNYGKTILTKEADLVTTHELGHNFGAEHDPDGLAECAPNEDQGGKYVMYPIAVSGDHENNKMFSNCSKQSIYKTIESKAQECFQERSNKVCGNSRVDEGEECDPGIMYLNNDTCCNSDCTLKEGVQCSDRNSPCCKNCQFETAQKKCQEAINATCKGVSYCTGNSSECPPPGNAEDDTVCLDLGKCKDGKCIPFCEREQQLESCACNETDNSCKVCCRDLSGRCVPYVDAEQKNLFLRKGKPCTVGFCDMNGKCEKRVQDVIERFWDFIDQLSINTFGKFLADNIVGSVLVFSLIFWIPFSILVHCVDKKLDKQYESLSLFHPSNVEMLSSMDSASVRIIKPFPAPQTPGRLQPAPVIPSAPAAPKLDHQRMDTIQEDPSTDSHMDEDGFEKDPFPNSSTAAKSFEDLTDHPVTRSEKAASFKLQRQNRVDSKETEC
T4 sequence (P14780 whole entry): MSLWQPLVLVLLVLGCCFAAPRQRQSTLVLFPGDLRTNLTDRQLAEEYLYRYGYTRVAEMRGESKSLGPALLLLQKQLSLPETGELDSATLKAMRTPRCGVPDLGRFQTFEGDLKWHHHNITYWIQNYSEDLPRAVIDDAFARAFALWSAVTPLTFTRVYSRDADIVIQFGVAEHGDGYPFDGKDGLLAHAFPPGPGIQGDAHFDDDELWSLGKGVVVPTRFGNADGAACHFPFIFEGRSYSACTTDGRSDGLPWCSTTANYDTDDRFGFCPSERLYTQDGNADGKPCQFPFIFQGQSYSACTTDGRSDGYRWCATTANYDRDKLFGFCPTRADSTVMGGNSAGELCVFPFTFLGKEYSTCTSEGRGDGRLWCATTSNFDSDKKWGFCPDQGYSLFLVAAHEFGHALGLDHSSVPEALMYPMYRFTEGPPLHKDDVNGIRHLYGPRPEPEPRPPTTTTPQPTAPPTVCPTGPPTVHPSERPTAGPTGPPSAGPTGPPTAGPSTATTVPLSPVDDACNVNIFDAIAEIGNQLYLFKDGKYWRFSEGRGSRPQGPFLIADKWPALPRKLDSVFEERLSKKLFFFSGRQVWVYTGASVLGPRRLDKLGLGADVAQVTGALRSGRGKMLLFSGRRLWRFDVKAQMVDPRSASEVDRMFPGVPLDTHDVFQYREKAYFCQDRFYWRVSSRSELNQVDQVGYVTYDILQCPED

For the compound `COc1ccc(S(=O)(=O)N(CC(=O)NO)Cc2ccc(C(=O)O)cc2)cc1`, the concentration for half-maximal inhibition (IC50) (as a rule, the midpoint of a concentration-inhibition curve) at Meprin A subunit beta [1] was found to be 980 nM.

As to `COc1ccc(S(=O)(=O)N(CC(=O)NO)Cc2cccc(C(=O)O)c2)cc1`, the IC50 was determined as 2 nM in [2]; 3.29 µM at Meprin A subunit alpha; 50 nM in [3]; 0.3 nM at Collagenase 3 [4]; 11.7 µM in data set [5]; 1240 nM in [6]. Further, the results for the Ratio IC50 in the data set filed under Homo sapiens [7] and in the data set filed under Homo sapiens [8] were 60 and above 100, respectively.

`O=C(CNS(=O)(=O)c1cccc(C(=O)O)c1)NO`: the IC50 on Meprin A subunit beta [1] amounted to 310 nM.

As for `O=C(CCNS(=O)(=O)c1cccc(C(=O)O)c1)NO`, the 50% inhibitory concentration (IC50) on Meprin A subunit beta [1] was found to be 220 nM.

Consider `O=C(Nc1cc(C(=O)Nc2ccc(S(=O)(=O)O)cc2S(=O)(=O)O)cc(C(=O)Nc2ccc(S(=O)(=O)O)cc2S(=O)(=O)O)c1)Nc1cc(C(=O)Nc2ccc(S(=O)(=O)O)cc2S(=O)(=O)O)cc(C(=O)Nc2ccc(S(=O)(=O)O)cc2S(=O)(=O)O)c1`, for which, on Meprin A subunit beta [9], the Ki (in general, a measure of affinity in units of concentration, obtained from inhibition or displacement) was 22 nM.

Take `O=C(CCNS(=O)(=O)c1cc(Cl)c(O)c(Cl)c1)NO`: on Meprin A subunit beta [1], the IC50 was determined as 400 nM.

Turning to `COc1ccc(S(=O)(=O)N(CCc2ccccc2)CC(=O)NO)cc1`, at Meprin A subunit beta [1], the 50% inhibitory concentration (IC50) was determined as 42900 nM.

On to `O=C(CNS(=O)(=O)c1cc(Cl)c(O)c(Cl)c1)NO`, for which, at Meprin A subunit beta [1], the IC50 was 430 nM.

For `O=C(CCNS(=O)(=O)c1ccc(C(=O)O)cc1)NO`, the IC50 at Meprin A subunit beta [1] was 340 nM.

For the compound `O=C(O)Cc1ccc(S(=O)(=O)NCC(=O)NO)cc1`, the IC50 at Meprin A subunit beta [1] amounted to 5030 nM.

`O=C(CNS(=O)(=O)c1ccc(Cl)cc1)NO`: the concentration for half-maximal inhibition (IC50) on Meprin A subunit beta [1] came to 17200 nM.

In the case of `O=C(CN(Cc1cccc(C(=O)O)c1)S(=O)(=O)c1cccc(C(=O)O)c1)NO`, the concentration for half-maximal inhibition (IC50) on Meprin A subunit alpha is 27.4 µM. For the same compound, the Ratio IC50 is 500 in the data set filed under Homo sapiens [7], above 100 in the data set listed under Homo sapiens [8] and above 100 in the data set listed under Homo sapiens [15]. Also, the “inhibition (INH)” value (in data set [10]; in data set [11]; at Collagenase 3 [12]; in data set [13]; in [14]) was “Not Active” in each case.

As for `O=C(CN(Cc1cccc(C(=O)O)c1)S(=O)(=O)c1ccc(C(=O)O)cc1)NO`, at Meprin A subunit beta [1], the IC50 was found to be 320 nM.

`COc1ccc(S(=O)(=O)N(C)CC(=O)NO)cc1`: the half-maximal inhibitory concentration (IC50) at Meprin A subunit beta [1] is 32500 nM.

`CCCCC[C@H](CC(=O)NO)C(=O)N[C@H](C(=O)N1CCC[C@H]1CO)C(C)C` [ACTINONIN] yielded an inhibitory constant (Ki) at Meprin A subunit beta [16] of 2000 nM.
